Compound: C=CC1=C(C(=O)O)N2C(=O)[C@@H](NC(=O)/C(=N\OCC(=O)O)c3csc(N)n3)[C@H]2SC1.O.O.O
- solubility (mole fraction) (in acetone, 278.15 K): 0.00223
- solubility (mole fraction) (in acetone, 283.15 K): 0.00276
- solubility (mole fraction) (in acetone, 288.15 K): 0.00308
- solubility (mole fraction) (in acetone, 293.15 K): 0.00346
- solubility (mole fraction) (in acetone, 298.15 K): 0.004
- solubility (mole fraction) (in acetone, 303.15 K): 0.0044
- solubility (mole fraction) (in acetone, 308.15 K): 0.00518
- solubility (mole fraction) (in acetone, 313.15 K): 0.00581
- solubility (mole fraction) (in acetone, 318.15 K): 0.00701
- solubility (mole fraction) (in acetone, 323.15 K): 0.00854
- solubility (mole fraction) (in ethanol, 278.15 K): 0.00189
- solubility (mole fraction) (in ethanol, 283.15 K): 0.0021
- solubility (mole fraction) (in ethanol, 288.15 K): 0.00246
- solubility (mole fraction) (in ethanol, 293.15 K): 0.00285
- solubility (mole fraction) (in ethanol, 298.15 K): 0.00321
- solubility (mole fraction) (in ethanol, 303.15 K): 0.0037
- solubility (mole fraction) (in ethanol, 308.15 K): 0.00415
- solubility (mole fraction) (in ethanol, 313.15 K): 0.00478
- solubility (mole fraction) (in ethanol, 318.15 K): 0.00536
- solubility (mole fraction) (in ethanol, 323.15 K): 0.00632
- solubility (mole fraction) (in ethyl acetate, 278.15 K): 0.000678
- solubility (mole fraction) (in ethyl acetate, 283.15 K): 0.000747
- solubility (mole fraction) (in ethyl acetate, 288.15 K): 0.000971
- solubility (mole fraction) (in ethyl acetate, 293.15 K): 0.00116
- solubility (mole fraction) (in ethyl acetate, 298.15 K): 0.00139
- solubility (mole fraction) (in ethyl acetate, 303.15 K): 0.00159
- solubility (mole fraction) (in ethyl acetate, 308.15 K): 0.00185
- solubility (mole fraction) (in ethyl acetate, 313.15 K): 0.00226
- solubility (mole fraction) (in ethyl acetate, 318.15 K): 0.00257
- solubility (mole fraction) (in ethyl acetate, 323.15 K): 0.00334
- solubility (mole fraction) (in isopropanol, 278.15 K): 0.000918
- solubility (mole fraction) (in isopropanol, 283.15 K): 0.00105
- solubility (mole fraction) (in isopropanol, 288.15 K): 0.00128
- solubility (mole fraction) (in isopropanol, 293.15 K): 0.00148
- solubility (mole fraction) (in isopropanol, 298.15 K): 0.00178
- solubility (mole fraction) (in isopropanol, 303.15 K): 0.00195
- solubility (mole fraction) (in isopropanol, 308.15 K): 0.0023
- solubility (mole fraction) (in isopropanol, 313.15 K): 0.00255
- solubility (mole fraction) (in isopropanol, 318.15 K): 0.00291
- solubility (mole fraction) (in isopropanol, 323.15 K): 0.0035
- solubility (mole fraction) (in n-butanol, 278.15 K): 0.000983
- solubility (mole fraction) (in n-butanol, 283.15 K): 0.00102
- solubility (mole fraction) (in n-butanol, 288.15 K): 0.00122
- solubility (mole fraction) (in n-butanol, 293.15 K): 0.00151
- solubility (mole fraction) (in n-butanol, 298.15 K): 0.00172
- solubility (mole fraction) (in n-butanol, 303.15 K): 0.002
- solubility (mole fraction) (in n-butanol, 308.15 K): 0.00249
- solubility (mole fraction) (in n-butanol, 313.15 K): 0.00293
- solubility (mole fraction) (in n-butanol, 318.15 K): 0.00343
- solubility (mole fraction) (in n-butanol, 323.15 K): 0.00437
- solubility (mole fraction) (in n-pentanol, 278.15 K): 0.000403
- solubility (mole fraction) (in n-pentanol, 283.15 K): 0.00051
- solubility (mole fraction) (in n-pentanol, 288.15 K): 0.000602
- solubility (mole fraction) (in n-pentanol, 293.15 K): 0.000779
- solubility (mole fraction) (in n-pentanol, 298.15 K): 0.00101
- solubility (mole fraction) (in n-pentanol, 303.15 K): 0.00136
- solubility (mole fraction) (in n-pentanol, 308.15 K): 0.00152
- solubility (mole fraction) (in n-pentanol, 313.15 K): 0.00191
- solubility (mole fraction) (in n-pentanol, 318.15 K): 0.00255
- solubility (mole fraction) (in n-pentanol, 323.15 K): 0.003
- solubility (mole fraction) (in sec-butanol, 278.15 K): 0.000899
- solubility (mole fraction) (in sec-butanol, 283.15 K): 0.000995
- solubility (mole fraction) (in sec-butanol, 288.15 K): 0.00119
- solubility (mole fraction) (in sec-butanol, 293.15 K): 0.00143
- solubility (mole fraction) (in sec-butanol, 298.15 K): 0.0015
- solubility (mole fraction) (in sec-butanol, 303.15 K): 0.00173
- solubility (mole fraction) (in sec-butanol, 308.15 K): 0.00211
- solubility (mole fraction) (in sec-butanol, 313.15 K): 0.00234
- solubility (mole fraction) (in sec-butanol, 318.15 K): 0.00276
- solubility (mole fraction) (in sec-butanol, 323.15 K): 0.00316

Reference: BigSolDB 2.1
